Measured values published in article PMC5007854, “β-Nitrostyrenes as Potential Anti-leishmanial Agents” (Frontiers in Microbiology, 2016).
In brackets after ≈: the same amount, converted by molar mass. Read-outs that look alike come from different tables or passages of the source.

Key:
[1] = test system: Aspergillus fumigatus ATCC 16424; experiment: Broth microdilution antifungal susceptibility (MIC/MFC); type: cell-based; conditions: for MIC / MFC: Aspergillus fumigatus; for MIC: ATCC16424, 48 h, read-out: MIC, Af ATCC 16424; for MIC / MIC, Af ATCC 16424: broth microdilution, 35°C, 48 h; for MFC: ATCC16424, ≥99.9% reduction of original inoculum, read-out: MFC, Af ATCC 16424
Method in brief: (§1)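 CLSI broth microdilution: Ca/Mg-supplemented Mueller-Hinton for bacteria (~5 × 10^5 CFU/mL, 24 h), MOPS-buffered RPMI 1640 pH 7.0 for fungi (Candida ~2.5 × 10^4, Aspergillus 0.4-5 × 10^4 CFU/mL, 48 h), 35°C, 1% DMSO, 64 to 0.12 μg/mL. MIC read visually; MBC/MFC by plating clear wells.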

[2] = test system: Aspergillus niger ATCC 16404; experiment: as above; type: cell-based; conditions: for MIC / MFC: Aspergillus niger; for MIC: ATCC16404, 48 h, read-out: MIC, An ATCC 16404; for MIC / MIC, An ATCC 16404: broth microdilution, 35°C, 48 h; for MFC: ATCC16404, ≥99.9% reduction of original inoculum, read-out: MFC, An ATCC 16404
Method in brief: as §1

[3] = test system: Candida albicans ATCC 90028; experiment: as above; type: cell-based; conditions: for MIC / MFC: Candida albicans; for MIC: ATCC90028, 48 h, read-out: MIC, Ca ATCC 90028; for MFC: ATCC90028, ≥99.9% reduction of original inoculum, read-out: MFC, Ca ATCC 90028
Method in brief: as §1

[4] = test system: Candida glabrata ATCC 90030; experiment: as above; type: cell-based; conditions: Nakaseomyces glabratus; for MFC: ATCC90030, ≥99.9% reduction of original inoculum, read-out: MFC, Cg ATCC 90030
Method in brief: as §1

[5] = test system: L. donovani promastigotes; experiment: Dose-dependent anti-promastigote activity, IC50 and IC90; type: cell-based, Leishmania donovani
Protocol: (§2) L. donovani parasites (MHOM/IN/83/AG83) were maintained in vivo in BALB/c mice. Promastigotes were routinely cultured at 22°C in medium M199 supplemented with 10% heat inactivated fetal bovine serum (FBS, HiMedia Laboratories, Mumbai, India), penicillin 100 (IU/ml), streptomycin (100 μg/ml). Log phase promastigotes were sub-cultured every 72–96 h, the inoculum being 2 × 10^6 cells/ml (Afrin et al., [2002]).
AmB was used as a standard antileishmanial drug control. The cell viability was evaluated by microscopically and the mean percentage viability was calculated as follows: Mean cell number of treated parasites / Mean cell number of untreated parasites × 100. The 50 and 90% inhibitory concentration (IC50 and IC90) i.e., the concentration of drugs that decreased the cell growth by 50 and 90% respectively was determined by graphical extrapolation after plotting the graph of % viability vs. concentration of drug (Islamuddin et al., [2014b]).
(§3) In vitro antileishmanial activity was expressed as IC50 by linear regression analysis. Values are mean ± SE of samples in triplicate from at least three independent experiments. Statistical analysis was performed using ANOVA followed by Dunnett's test. ^*P < 0.05, ^**P < 0.01 and ^***P < 0.001 compared with the untreated control group were considered significant.

[6] = test system: L. donovani promastigotes; experiment: Leishmanicidal assay (growth reversion after wash-out); type: cell-based, Leishmania donovani; conditions: 1 μM, 72 h treatment, then 72 h in fresh media
Protocol: To confirm the leishmanicidal effect of compounds 9, 12, 14, and 18, treated and untreated parasites (1 μM) after 72 h of incubation, were washed two times with fresh incomplete medium and finally resuspended in complete media, transferred back to 22°C and allowed to grow for 72 h. The viability of the parasites was determined microscopically (Afrin et al., [2001]).

[7] = test system: L. donovani intracellular amastigotes; experiment: Anti-amastigote activity in ex vivo macrophage model; type: cell-based, Leishmania donovani; conditions: Leishmania donovani, Peritoneal macrophage, in Mus musculus; intracellular amastigotes in BALB/c peritoneal macrophages, 48 h; read-out: L. donovani amastigotes IC50 ± SEM
Text: BALB/c mice was used for the isolation of peritoneal macrophages in the ex vivo anti-amastigote study after prior approval from the Jamia Hamdard Animal Ethics Committee (JHAEC). JHAEC is registered under the Committee for the purpose of supervision and control of experiments on animals (CPCSEA). Mice were individually housed in the Central Animal House of Jamia Hamdard as per internationally accepted norms. The mice were kept in standard size polycarbonate cages under controlled conditions of temperature (23 ± 1°C), humidity (55 ± 10%), 12:12 h of light and dark cycle and fed with standard pellet diet and filtered water (ad libitum).
Macrophages from the peritonial cavity of BALB/c mice (1 × 10^6 cellsml^−1) were allowed to adhere to round glass coverslips in a 24 well tissue culture plate and incubated for 12 h at 37°C in a CO2 incubator. After removal of the non-adherent macrophages, the cells were infected with stationary phase promastigotes using a cell to parasite ratio of 1:10 and incubated at 37°C for 24 h. The non-phagocytosed parasites were removed by washing, and the infected macrophages incubated with the test compounds 9, 12, 14, and 18 (0–25 μM) for an additional 48 h. The coverslips were fixed in methanol and giemsa-stained for microscopic evaluation (100X) of amastigote infectivity. Number of amastigotes per 100 macrophages were enumerated and the concentration that decreased amastigotes by 50% (IC50) was determined (Wong et al., [2012]; Islamuddin et al., [2014a]).
as §3

[8] = test system: Escherichia coli ATCC 25922; experiment: Broth microdilution antibacterial susceptibility (MIC/MBC); type: cell-based; conditions: for MIC / MBC: Escherichia coli; for MIC: ATCC25922, 24 h, read-out: MIC, Ec ATCC 25922; for MIC / MIC, Ec ATCC 25922: broth microdilution, 35°C, 24 h; for MBC: ATCC25922, ≥99.9% reduction of original inoculum, read-out: MBC, Ec ATCC 25922
Method in brief: as §1

[9] = test system: Pseudomonas aeruginosa ATCC 27853; experiment: as above; type: cell-based; conditions: for MIC / MBC: Pseudomonas aeruginosa; for MIC: ATCC27853, 24 h, read-out: MIC, Pa ATCC 27853; for MIC / MIC, Pa ATCC 27853: broth microdilution, 35°C, 24 h; for MBC: ATCC27853, ≥99.9% reduction of original inoculum, read-out: MBC, Pa ATCC 27853
Method in brief: as §1

[10] = test system: Staphylococcus aureus ATCC 29213; experiment: as above; type: cell-based; conditions: for MIC / MBC: Staphylococcus aureus; for MIC: ATCC29213, 24 h, read-out: MIC, Sa ATCC 29213; for MIC / MIC, Sa ATCC 29213: broth microdilution, 35°C, 24 h; for MBC: ATCC29213, ≥99.9% reduction of original inoculum, read-out: MBC, Sa ATCC 29213
Method in brief: as §1

[11] = test system: Staphylococcus epidermidis ATCC 14990; experiment: as above; type: cell-based; conditions: for MIC / MBC: Staphylococcus epidermidis; for MIC: ATCC14990, 24 h, read-out: MIC, Se ATCC 14990; for MIC / MIC, Se ATCC 14990: broth microdilution, 35°C, 24 h; for MBC: ATCC14990, ≥99.9% reduction of original inoculum, read-out: MBC, Se ATCC 14990
Method in brief: as §1

[12] = test system: L. donovani promastigotes; experiment: Anti-leishmanial screening at 100 μM, parasite viability by microscopy; type: cell-based, Leishmania donovani; conditions: 100 μM, 72 h, phase contrast microscope
Protocol: as §2
Nitrostyrine series were screened for their antileishmanial activity against L. donovani promastigotes in vitro. Promastigotes of L. donovani (2 × 10^6 cells/mL) in M199 medium were incubated at 22°C for 72 h with each compound at a concentration of 100 μM. Amphotericin B (AmB) served as reference drug, 0.2% DMSO was used as solvent control. Parasites with media alone were taken as control. Parasite viability was determined microscopically after 72 h (Islamuddin et al., [2014b]).

[13] = broth microdilution, 35°C, 48 h
[14] = Leishmania donovani, 72 h, 22°C, values given in μM, read-out: IC50 against promastigotes

| SMILES | MIC [1] | MFC [1] | MIC [2] | MFC [2] | MIC [3, 13] | MFC [3] | MFC [4] | MIC [8] | MBC [8] | MIC, Ec ATCC 25922 [8] | MIC [9] | MBC [9] | MIC, Pa ATCC 27853 [9] | MIC [10] | MBC [10] | MIC, Sa ATCC 29213 [10] | MIC [11] | MBC [11] | MIC, Se ATCC 14990 [11] | MIC, Af ATCC 16424 [1] | also measured |
| --- | --- | --- | --- | --- | --- | --- | --- | --- | --- | --- | --- | --- | --- | --- | --- | --- | --- | --- | --- | --- | --- |
| C[C@@H]1[C@H](O)[C@@H](C)/C=C/C=C/C=C/C=C/C=C/C=C/C=C/[C@H](O[C@@H]2O[C@H](C)[C@@H](O)[C@H](N)[C@@H]2O)C[C@@H]2O[C@](O)(C[C@@H](O)C[C@@H](O)[C@H](O)CC[C@@H](O)C[C@@H](O)CC(=O)O[C@H]1C)C[C@H](O)[C@H]2C(=O)O [AmB, Amphotericin B, reference compound] | 0.5 µg/mL (≈ 0.541 µM) | 1 µg/mL (≈ 1.08 µM) | 1 µg/mL (≈ 1.08 µM) | 1 µg/mL (≈ 1.08 µM) | 0.5 µg/mL (≈ 0.541 µM) | 0.5 µg/mL (≈ 0.541 µM) | 0.5 µg/mL (≈ 0.541 µM) | – | – | – | – | – | – | – | – | – | – | – | – | – | MIC ([4]; ATCC90030, 48 h, broth microdilution, 35°C, 48 h, read-out: MIC, Cg ATCC 90030): 0.5 µg/mL (≈ 0.541 µM); IC50 ([5]; Leishmania donovani, 72 h, 22°C, mean from three determinations, read-out: L. donovani promastigotes IC50 ± SEM): 0.0196 ± 0.00171 µM; IC90 ([5]; Leishmania donovani, 72 h, 22°C, mean from three determinations, read-out: L. donovani promastigotes IC90 ± SEM): 82.6 ± 1.36 nM; Leishmanicidal effect (reversion after wash and 72 h in fresh media) [6]: as also observed in positive drug control; IC50 [7]: 27.8 ± 3.26 nM |
| CC/C(=C\c1cccc(O)c1)[N+](=O)[O-] [Compound 21, 3-((E)-2-nitrobut-1-enyl) phenol] | 4 to 8 µg/mL (≈ 20.7 to 41.4 µM) | 8 µg/mL (≈ 41.4 µM) | 2 to 4 µg/mL (≈ 10.4 to 20.7 µM) | 8 µg/mL (≈ 41.4 µM) | – | 32 µg/mL (≈ 166 µM) | 16 µg/mL (≈ 82.8 µM) | 16 to 32 µg/mL (≈ 82.8 to 166 µM) | 64 µg/mL (≈ 331 µM) | 32 µg/mL (≈ 166 µM) | 16 to 32 µg/mL (≈ 82.8 to 166 µM) | 64 µg/mL (≈ 331 µM) | 32 µg/mL (≈ 166 µM) | 2 to 32 µg/mL (≈ 10.4 to 166 µM) | 4 µg/mL (≈ 20.7 µM) | 2 µg/mL (≈ 10.4 µM) | 2 to 16 µg/mL (≈ 10.4 to 82.8 µM) | 2 µg/mL (≈ 10.4 µM) | 2 µg/mL (≈ 10.4 µM) | 8 µg/mL (≈ 41.4 µM) | MIC, An ATCC 16404 [2]: 4 µg/mL (≈ 20.7 µM); Parasite viability after treatment [12]: All the parasites were found to be dead; IC50 [5, 14]: 28.4 ± 3.11 µM; melting point: 82 to 84 °C |
| C/C(=C\c1ccc(O)cc1)[N+](=O)[O-] [Compound 17, 4-((E)-2-nitroprop-1-enyl) phenol] | 4 to 8 µg/mL (≈ 22.3 to 44.6 µM) | 8 µg/mL (≈ 44.6 µM) | 2 to 4 µg/mL (≈ 11.2 to 22.3 µM) | 4 µg/mL (≈ 22.3 µM) | 4 to 32 µg/mL (≈ 22.3 to 179 µM) | 8 µg/mL (≈ 44.6 µM) | 8 µg/mL (≈ 44.6 µM) | 16 to 32 µg/mL (≈ 89.3 to 179 µM) | 16 µg/mL (≈ 89.3 µM) | 16 µg/mL (≈ 89.3 µM) | 16 to 32 µg/mL (≈ 89.3 to 179 µM) | 32 µg/mL (≈ 179 µM) | 16 µg/mL (≈ 89.3 µM) | 2 to 32 µg/mL (≈ 11.2 to 179 µM) | 4 µg/mL (≈ 22.3 µM) | 4 µg/mL (≈ 22.3 µM) | 2 to 16 µg/mL (≈ 11.2 to 89.3 µM) | 2 µg/mL (≈ 11.2 µM) | 2 µg/mL (≈ 11.2 µM) | 8 µg/mL (≈ 44.6 µM) | MIC, An ATCC 16404 [2]: 4 µg/mL (≈ 22.3 µM); MIC, Ca ATCC 90028 [3, 13]: 8 µg/mL (≈ 44.6 µM); Parasite viability after treatment [12]: All the parasites were found to be dead; Anti-leishmanial activity, in words (compounds with IC50 determined) ([5]; L. donovani promastigotes): moderately active; IC50 [5, 14]: 39.4 ± 1.36 µM; melting point: 122 to 124 °C |
